What was measured:
[1] = test system: Aβ25-35 oligomer-intoxicated mice; test: Y-maze test, symptomatic treatment; format: in vivo; conditions: doses 0.1; 0.3; 1.0; 3 and 10 mg/Kg i.p., symptomatic design
Experimental: The test compounds were tested for their ability to decrease the cognitive symptoms of Aβ25-35 oligomer-induced neurodegeneration, i.e. their ability to provide symptomatic anti-amnestic treatment (FIGS. 1A and 1B). In brief, to test the symptomatic effect of the test compounds, they were administered 8 days after the icy injection of the Aβ25-35 oligomers, 30 minutes before the YMT and PAT memory tests were conducted or 30 minutes before the test, but after the training session, in the case of the MWT or ORT (FIG. 1A). […]
The spontaneous alternation test was used to assess spatial working memory (very short-term memory) in rodents. […] The mouse's entries into each arm, including the arm at whose end it was placed, are recorded. […] The number of maximum alternations is thus the total number of entries into each arm minus 2 and the percentage of alternation was calculated according to the formula: % Alt=number of actual alternations/maximum number of alterations×100
The parameters measured included the percentage of alternations (memory index) and the total number of entries into the arms of the maze (exploration index, Maurice et al., 1994, 1996; Meunier et al., 2006, 2013; Villard et al., 2009, 2011). […]

IL-6 = IL-6 ELISA in hippocampus, Aβ25-35 oligomer neuroprotection design; format: in vivo; conditions: 0.3 mg/Kg i.p., compared to intoxicated but untreated mice
Experimental: The neuroprotective effect of the compounds, i.e. the ability thereof to protect cells from Aβ25-35 oligomer neurotoxicity and neurodegeneration, is also tested (FIG. 10). The test compounds are thus administered on the same day as the injection of the Aβ25-35 oligomers and are continued to be administered on a daily basis up to day 7 after the injection of the oligomers, at which time the mice are subjected to the YMT, PAT, MWT or ORT. The brain's anatomy is analysed and neuronal cells are counted by immunohistochemistry on mice sacrificed at D13. The biochemical analyses for the quantification of markers of oxidative stress and apoptosis were carried out at D16 on a group of mice that had been subjected to the WMT (FIG. 10).
Their brains were removed, and the hippocampi were isolated, weighed and frozen at −80° C. awaiting biochemical analysis.
Interleukin 6 (IL-6), a cytokine inflammatory marker, and the levels of the apoptosis markers Bcl2 and Bax proteins were measured in mouse hippocampi by the ELISA tests listed in Table 1 hereinbelow. Bcl2 is often referred to as an anti-apoptotic marker and Bax as a pro-apoptotic marker. […] After centrifugation (10,000 g, 5 min, 4° C.), the supernatants containing the markers to be measured were aliquoted and stored at −80° C. until the ELISA test was carried out according to the supplier's instructions. […]

lipid peroxidation = test: Lipid peroxidation in hippocampus, Aβ25-35 oligomer neuroprotection design; format: in vivo, mice; conditions: 0.3 mg/Kg
Experimental: The neuroprotective effect of the compounds, i.e. the ability thereof to protect cells from Aβ25-35 oligomer neurotoxicity and neurodegeneration, is also tested (FIG. 10). The test compounds are thus administered on the same day as the injection of the Aβ25-35 oligomers and are continued to be administered on a daily basis up to day 7 after the injection of the oligomers, at which time the mice are subjected to the YMT, PAT, MWT or ORT. The brain's anatomy is analysed and neuronal cells are counted by immunohistochemistry on mice sacrificed at D13. The biochemical analyses for the quantification of markers of oxidative stress and apoptosis were carried out at D16 on a group of mice that had been subjected to the WMT (FIG. 10). […]
The amount of hydroperoxide present in the samples was measured by quantifying the Fe^3+-xylenol orange complex: in an acidic medium, hydroperoxides oxidise the Fe^2+ to Fe^3+. The latter forms a coloured complex with xylenol orange, the formation whereof was quantified by measuring its absorbance at 580 nm.
After thawing, the hippocampi were homogenised in cold methanol (1/10 w/v), centrifuged at 1000 g for 5 min and the supernatant was collected. […] The absorbance at 580 nm (A5801) was measured and 10 μl of cumene hydroperoxide (CHP, 1 mM) was added and the entirety was incubated for 30 min at ambient temperature. […]

CC12CC3CC(C)(C1)CC(N)(C3)C2 [memantine, 3,5-Dimethyl-1-adamantanamine, reference compound]
restoring Alt % in the Y-maze test, effective doses [1]: only effective at 0.3 mg/Kg | IL-6 level in the hippocampus (IL-6): did not result in a significant decrease in IL-6 levels | level of lipid peroxidation in the hippocampus (lipid peroxidation): did not significantly decrease the level of lipid peroxidation

NC12CC3CC(C1)CC(CCF)(C3)C2 [FENM, 3-(2-fluoroethyl)adamantan-1-amine]
restoring Alt % in the Y-maze test, effective doses [1]: effective at all doses tested from 0.1 mg/Kg | IL-6 level in the hippocampus (IL-6): significantly lower than that of untreated, intoxicated mice | level of lipid peroxidation in the hippocampus (lipid peroxidation): level equivalent to that of the control group

Reference: patent US12611387B2, “Compound and composition for inducing neuroprotection” (REST THERAPEUTICS, priority 2020, dated 2026)
